Assay results taken from ChEMBL document CHEMBL1144019 (Bioorg Med Chem, 2008).
In brackets after ≈: the same amount, converted by molar mass.

How the values were obtained:
Assay type in all cases: functional
Staphylococcus aureus = test: Antibacterial activity against Staphylococcus aureus Smith by standard serial agar dilution method
Streptococcus pneumoniae = test: Antibacterial activity against penicillin-resistant Streptococcus pneumoniae SR-16675 by standard serial agar dilution method
Escherichia coli [1] = test: Antibacterial activity against Escherichia coli SR-21003 by standard serial agar dilution method
Escherichia coli [2] = test: Antibacterial activity against Toho 2 producing Escherichia coli by standard serial agar dilution method
Enterobacter cloacae [3] = test: Antibacterial activity against Enterobacter cloacae ATCC 13047 by standard serial agar dilution method
Enterobacter cloacae [4] = test: Antibacterial activity against AmpC producing Enterobacter cloacae SR-4321 by standard serial agar dilution method
Pseudomonas aeruginosa [5] = test: Antibacterial activity against Pseudomonas aeruginosa SR24 by standard serial agar dilution method
Pseudomonas aeruginosa [6] = test: Antibacterial activity against AmpC hyperproducing Pseudomonas aeruginosa SR24-12 by standard serial agar dilution method
Pseudomonas aeruginosa [7] = test: Antibacterial activity against Pseudomonas aeruginosa SR-5393 by standard serial agar dilution method
Pseudomonas aeruginosa [8] = test: Antibacterial activity against imipenem-resistant Pseudomonas aeruginosa SR-6554 by standard serial agar dilution method
Haemophilus influenzae [9] = test: Antibacterial activity against Haemophilus influenzae ATCC 49766 by standard serial agar dilution method
Haemophilus influenzae [10] = test: Antibacterial activity against beta-lactamase negative ampicillin-resistant Haemophilus influenzae SR-11435 by standard serial agar dilution method
Moraxella catarrhalis = test: Antibacterial activity against Moraxella catarrhalis ATCC 43617 by standard serial agar dilution method

| SMILES | MIC (Staphylococcus aureus) [µg/mL] | MIC (Streptococcus pneumoniae) [µg/mL] | MIC (Escherichia coli [1]) [µg/mL] | MIC (Escherichia coli [2]) [µg/mL] | MIC (Enterobacter cloacae [3]) [µg/mL] | MIC (Enterobacter cloacae [4]) [µg/mL] | MIC (Pseudomonas aeruginosa [5]) [µg/mL] | MIC (Pseudomonas aeruginosa [6]) [µg/mL] | MIC (Pseudomonas aeruginosa [7]) [µg/mL] | MIC (Pseudomonas aeruginosa [8]) [µg/mL] | MIC (Haemophilus influenzae [9]) [µg/mL] | MIC (Haemophilus influenzae [10]) [µg/mL] | MIC (Moraxella catarrhalis) [µg/mL] |
| --- | --- | --- | --- | --- | --- | --- | --- | --- | --- | --- | --- | --- | --- |
| C[C@H](O/N=C(\C(=O)N[C@@H]1C(=O)N2C(C(=O)[O-])=C(C[n+]3cccc4c3ccn4CCNS(N)(=O)=O)CS[C@H]12)c1nc(N)sc1Cl)C(=O)O | 2 (≈ 2.75 µM) | 2 (≈ 2.75 µM) | 0.25 (≈ 0.343 µM) | 2 (≈ 2.75 µM) | 0.5 (≈ 0.687 µM) | 4 (≈ 5.49 µM) | 1 (≈ 1.37 µM) | 4 (≈ 5.49 µM) | 4 (≈ 5.49 µM) | 8 (≈ 11 µM) | 0.032 (≈ 0.0439 µM) | 0.063 (≈ 0.0865 µM) | 0.016 (≈ 0.022 µM) |
| COC(=O)NCCn1ccc2c1ccc[n+]2CC1=C(C(=O)[O-])N2C(=O)[C@@H](NC(=O)/C(=N\O[C@@H](C)C(=O)O)c3nc(N)sc3Cl)[C@H]2SC1 | 4 (≈ 5.66 µM) | 4 (≈ 5.66 µM) | 0.5 (≈ 0.707 µM) | 4 (≈ 5.66 µM) | 1 (≈ 1.41 µM) | 4 (≈ 5.66 µM) | 2 (≈ 2.83 µM) | 8 (≈ 11.3 µM) | 8 (≈ 11.3 µM) | 16 (≈ 22.6 µM) | 0.032 (≈ 0.0453 µM) | 0.063 (≈ 0.0891 µM) | 0.032 (≈ 0.0453 µM) |
| CNCCn1ncc2c1ccc[n+]2CC1=C(C(=O)[O-])N2C(=O)[C@@H](NC(=O)/C(=N\O[C@@H](C)C(=O)O)c3nc(N)sc3Cl)[C@H]2SC1 | 4 (≈ 6.02 µM) | 4 (≈ 6.02 µM) | 1 (≈ 1.51 µM) | 4 (≈ 6.02 µM) | 1 (≈ 1.51 µM) | 4 (≈ 6.02 µM) | 1 (≈ 1.51 µM) | 8 (≈ 12 µM) | 4 (≈ 6.02 µM) | 16 (≈ 24.1 µM) | 0.125 (≈ 0.188 µM) | 0.125 (≈ 0.188 µM) | 0.032 (≈ 0.0482 µM) |
| CC(=O)NCCn1ccc2c1ccc[n+]2CC1=C(C(=O)[O-])N2C(=O)[C@@H](NC(=O)/C(=N\O[C@@H](C)C(=O)O)c3nc(N)sc3Cl)[C@H]2SC1 | 4 (≈ 5.79 µM) | 4 (≈ 5.79 µM) | 0.25 (≈ 0.362 µM) | 2 (≈ 2.89 µM) | 0.5 (≈ 0.723 µM) | 4 (≈ 5.79 µM) | 2 (≈ 2.89 µM) | 8 (≈ 11.6 µM) | 4 (≈ 5.79 µM) | 16 (≈ 23.1 µM) | 0.032 (≈ 0.0463 µM) | 0.125 (≈ 0.181 µM) | 0.032 (≈ 0.0463 µM) |
| C[C@H](O/N=C(\C(=O)N[C@@H]1C(=O)N2C(C(=O)[O-])=C(C[n+]3cccc4[nH]ccc43)CS[C@H]12)c1nc(N)sc1Cl)C(=O)O | 1 (≈ 1.65 µM) | 2 (≈ 3.3 µM) | 0.25 (≈ 0.413 µM) | 1 (≈ 1.65 µM) | 0.25 (≈ 0.413 µM) | 2 (≈ 3.3 µM) | 1 (≈ 1.65 µM) | 4 (≈ 6.6 µM) | 2 (≈ 3.3 µM) | 8 (≈ 13.2 µM) | 0.016 (≈ 0.0264 µM) | 0.032 (≈ 0.0528 µM) | 0.016 (≈ 0.0264 µM) |
| CNCCn1ccc2c[n+](CC3=C(C(=O)[O-])N4C(=O)[C@@H](NC(=O)/C(=N\O[C@@H](C)C(=O)O)c5nc(N)sc5Cl)[C@H]4SC3)ccc21 | 4 (≈ 6.03 µM) | 4 (≈ 6.03 µM) | 0.25 (≈ 0.377 µM) | 2 (≈ 3.02 µM) | 0.5 (≈ 0.754 µM) | 8 (≈ 12.1 µM) | 1 (≈ 1.51 µM) | 4 (≈ 6.03 µM) | 2 (≈ 3.02 µM) | 8 (≈ 12.1 µM) | 0.032 (≈ 0.0483 µM) | 0.125 (≈ 0.188 µM) | 0.032 (≈ 0.0483 µM) |
| C[C@H](O/N=C(\C(=O)N[C@@H]1C(=O)N2C(C(=O)[O-])=C(C[n+]3cccc4c3ccn4CCOC(N)=O)CS[C@H]12)c1nc(N)sc1Cl)C(=O)O | 2 (≈ 2.89 µM) | 2 (≈ 2.89 µM) | 0.25 (≈ 0.361 µM) | 2 (≈ 2.89 µM) | 0.25 (≈ 0.361 µM) | 2 (≈ 2.89 µM) | 0.5 (≈ 0.721 µM) | 4 (≈ 5.77 µM) | 2 (≈ 2.89 µM) | 8 (≈ 11.5 µM) | 0.032 (≈ 0.0462 µM) | 0.063 (≈ 0.0909 µM) | 0.032 (≈ 0.0462 µM) |
| C[C@H](O/N=C(\C(=O)N[C@@H]1C(=O)N2C(C(=O)[O-])=C(C[n+]3cccc4c3nc(N)n4C3CCNCC3)CS[C@H]12)c1nc(N)sc1Cl)C(=O)O | 2 (≈ 2.84 µM) | 2 (≈ 2.84 µM) | 0.25 (≈ 0.355 µM) | 2 (≈ 2.84 µM) | 0.25 (≈ 0.355 µM) | 2 (≈ 2.84 µM) | 0.5 (≈ 0.709 µM) | 2 (≈ 2.84 µM) | 2 (≈ 2.84 µM) | 4 (≈ 5.67 µM) | 0.016 (≈ 0.0227 µM) | 0.063 (≈ 0.0893 µM) | 0.016 (≈ 0.0227 µM) |
| CNCCn1nnc2c1ccc[n+]2CC1=C(C(=O)[O-])N2C(=O)[C@@H](NC(=O)/C(=N\O[C@@H](C)C(=O)O)c3nc(N)sc3Cl)[C@H]2SC1 | 4 (≈ 6.01 µM) | 2 (≈ 3.01 µM) | 0.25 (≈ 0.376 µM) | 2 (≈ 3.01 µM) | 0.5 (≈ 0.752 µM) | 8 (≈ 12 µM) | 2 (≈ 3.01 µM) | 64 (≈ 96.2 µM) | 8 (≈ 12 µM) | 64 (≈ 96.2 µM) | 0.125 (≈ 0.188 µM) | 0.5 (≈ 0.752 µM) | 0.032 (≈ 0.0481 µM) |
| CNCCCc1cc[n+](CC2=C(C(=O)[O-])N3C(=O)[C@@H](NC(=O)/C(=N\O[C@@H](C)C(=O)O)c4nc(N)sc4Cl)[C@H]3SC2)cc1 | 8 (≈ 12.5 µM) | 4 (≈ 6.27 µM) | 1 (≈ 1.57 µM) | 4 (≈ 6.27 µM) | 1 (≈ 1.57 µM) | 8 (≈ 12.5 µM) | 1 (≈ 1.57 µM) | 8 (≈ 12.5 µM) | 4 (≈ 6.27 µM) | 16 (≈ 25.1 µM) | 0.125 (≈ 0.196 µM) | 0.25 (≈ 0.392 µM) | 0.032 (≈ 0.0501 µM) |
